Source: patent publication US20240208992A1, “MACROCYCLES AS CFTR MODULATORS” (Idorsia Pharmaceuticals Ltd, priority 2021, published 2024)

Target: human F508del-CFTR (Homo sapiens, UniProt P13569, DEL508-508)
Assay: F508del-CFTR cell surface expression (corrector activity), DiscoveRx ß-galactosidase complementation chemiluminescence assay in recombinant U2OS cell line;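 note: U2OS cells co-expressing ProLink-tagged F508del-CFTR and a membrane-anchored enzyme acceptor, where more surface CFTR restores β-galactosidase activity measured by chemiluminescence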
Settings: for EC50: EC50, F508del-CFTR cell surface expression, U2OS cells, 16h compound incubation, geomean values; for Emax: U2OS, in relation to Emax of corrector lumacaftor (=100%), arithmetic mean values

Sequence of human F508del-CFTR (P13569 with tags, fused parts or gaps DEL508-508): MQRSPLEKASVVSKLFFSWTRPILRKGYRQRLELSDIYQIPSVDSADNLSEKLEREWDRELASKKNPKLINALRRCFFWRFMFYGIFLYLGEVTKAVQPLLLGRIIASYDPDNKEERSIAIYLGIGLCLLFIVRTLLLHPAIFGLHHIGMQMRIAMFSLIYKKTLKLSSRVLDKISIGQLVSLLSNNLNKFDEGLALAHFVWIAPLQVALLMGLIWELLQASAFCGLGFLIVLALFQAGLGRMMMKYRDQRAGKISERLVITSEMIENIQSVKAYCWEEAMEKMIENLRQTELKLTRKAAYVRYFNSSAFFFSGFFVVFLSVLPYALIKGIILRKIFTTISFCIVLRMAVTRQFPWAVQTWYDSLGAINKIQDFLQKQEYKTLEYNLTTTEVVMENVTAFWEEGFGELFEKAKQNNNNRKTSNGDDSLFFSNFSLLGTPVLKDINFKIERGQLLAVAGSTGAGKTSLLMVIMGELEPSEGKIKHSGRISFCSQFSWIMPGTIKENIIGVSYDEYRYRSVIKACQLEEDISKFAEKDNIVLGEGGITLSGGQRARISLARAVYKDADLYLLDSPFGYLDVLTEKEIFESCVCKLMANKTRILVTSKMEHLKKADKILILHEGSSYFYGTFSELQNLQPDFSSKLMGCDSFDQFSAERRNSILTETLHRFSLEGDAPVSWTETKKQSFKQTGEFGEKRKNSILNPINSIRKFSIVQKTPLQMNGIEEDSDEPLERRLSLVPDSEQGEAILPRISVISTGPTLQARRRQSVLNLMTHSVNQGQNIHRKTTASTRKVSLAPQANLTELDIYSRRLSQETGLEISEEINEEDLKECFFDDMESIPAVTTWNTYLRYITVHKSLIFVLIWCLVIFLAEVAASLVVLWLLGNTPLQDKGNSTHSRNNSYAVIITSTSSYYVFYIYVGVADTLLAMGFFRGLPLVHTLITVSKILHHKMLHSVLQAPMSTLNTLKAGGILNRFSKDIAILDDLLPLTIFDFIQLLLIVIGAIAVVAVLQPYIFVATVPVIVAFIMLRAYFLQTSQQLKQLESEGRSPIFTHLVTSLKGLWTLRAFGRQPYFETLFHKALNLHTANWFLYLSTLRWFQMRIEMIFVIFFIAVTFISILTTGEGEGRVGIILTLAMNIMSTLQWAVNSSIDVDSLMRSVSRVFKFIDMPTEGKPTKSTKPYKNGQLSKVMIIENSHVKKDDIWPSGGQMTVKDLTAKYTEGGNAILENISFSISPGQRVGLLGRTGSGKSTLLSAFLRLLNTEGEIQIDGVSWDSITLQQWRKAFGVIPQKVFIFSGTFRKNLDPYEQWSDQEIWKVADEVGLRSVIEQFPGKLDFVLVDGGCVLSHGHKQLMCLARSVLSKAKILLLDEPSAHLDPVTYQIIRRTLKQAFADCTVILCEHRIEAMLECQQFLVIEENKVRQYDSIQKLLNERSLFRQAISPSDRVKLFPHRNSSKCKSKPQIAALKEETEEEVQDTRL

EC50 | Emax | SMILES
444 nM | 262% | CC(C)C[C@H]1C(=O)N2CCCC[C@@H]2C(=O)N[C@H](Cc2ccccc2)COc2cnc3ccccc3c2C(=O)N[C@H](C(=O)NCCc2cccc(-n3nccn3)c2)CC(=O)N1C [Example 461, (9S,13S,19aR,22R)-N-(3-(2H-1,2,3-triazol-2-yl)phenethyl)-22-benzyl-13-isobutyl-12-methyl-7,11,14,20-tetraoxo-7,8,9,10,11,12,13,14,17,18,19,19a,20,21,22,23-hexadecahydro-16H-pyrido[2′,1′:6,7][1]oxa[4,7,10,14]tetraazacycloheptadecino[17,16-c]quinoline-9-carboxamide]
345 nM | 130% | CC(C)C[C@H]1C(=O)N2CCCC[C@H]2C(=O)N[C@H](Cc2ccccc2)COc2cnc3ccccc3c2C(=O)N[C@H](C(=O)NCCc2cccc(-n3nccn3)c2)CC(=O)N1C [Example 462, (9S,13S,19aS,22R)-N-(3-(2H-1,2,3-triazol-2-yl)phenethyl)-22-benzyl-13-isobutyl-12-methyl-7,11,14,20-tetraoxo-7,8,9,10,11,12,13,14,17,18,19,19a,20,21,22,23-hexadecahydro-16H-pyrido[2′,1′:6,7][1]oxa[4,7,10,14]tetraazacycloheptadecino[17,16-c]quinoline-9-carboxamide]
278 nM | 269% | CC(C)C[C@H]1C(=O)N2CCCC[C@@H]2C(=O)N[C@H](Cc2ccccc2)COc2cnc3ccccc3c2C(=O)N[C@H](C(=O)NCCc2ccc(-n3nccn3)cc2)CC(=O)N1C [Example 463, (9S,13S,19aR,22R)-N-(4-(2H-1,2,3-triazol-2-yl)phenethyl)-22-benzyl-13-isobutyl-12-methyl-7,11,14,20-tetraoxo-7,8,9,10,11,12,13,14,17,18,19,19a,20,21,22,23-hexadecahydro-16H-pyrido[2′,1′:6,7][1]oxa[4,7,10,14]tetraazacycloheptadecino[17,16-c]quinoline-9-carboxamide]
319 nM | 109% | CC(C)C[C@H]1C(=O)N2CCCC[C@H]2C(=O)N[C@H](Cc2ccccc2)COc2cnc3ccccc3c2C(=O)N[C@H](C(=O)NCCc2ccc(-n3nccn3)cc2)CC(=O)N1C [Example 464, (9S,13S,19aS,22R)-N-(4-(2H-1,2,3-triazol-2-yl)phenethyl)-22-benzyl-13-isobutyl-12-methyl-7,11,14,20-tetraoxo-7,8,9,10,11,12,13,14,17,18,19,19a,20,21,22,23-hexadecahydro-16H-pyrido[2′,1′:6,7][1]oxa[4,7,10,14]tetraazacycloheptadecino[17,16-c]quinoline-9-carboxamide]

Continued, compound first:

SMILES | EC50 | Emax
COc1cccc(CCNC(=O)[C@@H]2CC(=O)N(C)[C@@H](CC(C)C)C(=O)N3CCN(C)C[C@@H]3C(=O)N[C@H](Cc3ccccc3)COc3cnc4ccccc4c3C(=O)N2)c1 [Example 459, (9S,13S,19aR,22R)-22-benzyl-13-isobutyl-N-(3-methoxyphenethyl)-12,18-dimethyl-7,11,14,20-tetraoxo-7,8,9,10,11,12,13,14,17,18,19,19a,20,21,22,23-hexadecahydro-16H-pyrazino[2′,11:6,7][1]oxa[4,7,10,14]tetraazacycloheptadecino[17,16-c]quinoline-9-carboxamide] | 726 nM | 390%
COc1cccc(CCNC(=O)[C@@H]2CC(=O)N(C)[C@@H](CC(C)C)C(=O)N(C)C3(CC3)C(=O)N[C@H](Cc3ccccc3)COc3ccc4ncccc4c3C(=O)N2)c1 [Example 460, (3′S,7′S,13′R)-13′-benzyl-7′-isobutyl-N-(3-methoxyphenethyl)-6′,9′-dimethyl-1′,5′,8′,11′-tetraoxo-2′,3′,4′,5′,6′,7′,8′,9′,11′,12′,13′,14′-dodecahydro-1′H-spiro[cyclopropane-1,10′-[1]oxa[4,7,10,14]tetraazacycloheptadecino[16,17-f]quinoline]-3′-carboxamide] | 310 nM | 398%
COc1cccc(CCNC(=O)[C@@H]2CC(=O)N(C)[C@@H](CC(C)C)C(=O)N(C)CC(=O)N[C@H](Cc3ccccc3)COc3ccc4cnccc4c3C(=O)N2)c1 [Example 465] | 800 nM | 387%
COc1nccc2c1C(=O)N[C@H](C(=O)NCCc1cccc(-n3nccn3)c1)CC(=O)N(C)[C@@H](CC(C)C)C(=O)N1CCCC[C@@H]1C(=O)N[C@H](Cc1ccccc1)CO2 [Example 466, (7S,11S,17aR,20R)-N-(3-(2H-1,2,3-triazol-2-yl)phenethyl)-20-benzyl-11-isobutyl-4-methoxy-10-methyl-5,9,12,18-tetraoxo-5,6,7,8,9,10,11,12,15,16,17,17a,18,19,20,21-hexadecahydro-14H-dipyrido[2,1-f:3′,4′-p][1]oxa[4,7,10,14]tetraazacycloheptadecine-7-carboxamide] | 548 nM | 328%
COc1nccc2c1C(=O)N[C@H](C(=O)NCCc1cccc(-n3nccn3)c1)CC(=O)N(C)[C@@H](CC(C)C)C(=O)N1CCCC[C@H]1C(=O)N[C@H](Cc1ccccc1)CO2 [Example 467, (7S,11S,17aS,20R)-N-(3-(2H-1,2,3-triazol-2-yl)phenethyl)-20-benzyl-11-isobutyl-4-methoxy-10-methyl-5,9,12,18-tetraoxo-5,6,7,8,9,10,11,12,15,16,17,17a,18,19,20,21-hexadecahydro-14H-dipyrido[2,1-f:3′,4′-p][1]oxa[4,7,10,14]tetraazacycloheptadecine-7-carboxamide] | 936 nM | 152%
COc1nccc2c1C(=O)N[C@H](C(=O)NCCc1ccc(-n3nccn3)cc1)CC(=O)N(C)[C@@H](CC(C)C)C(=O)N1CCCC[C@@H]1C(=O)N[C@H](Cc1ccccc1)CO2 [Example 468, (7S,11S,17aR,20R)-N-(4-(2H-1,2,3-triazol-2-yl)phenethyl)-20-benzyl-11-isobutyl-4-methoxy-10-methyl-5,9,12,18-tetraoxo-5,6,7,8,9,10,11,12,15,16,17,17a,18,19,20,21-hexadecahydro-14H-dipyrido[2,1-f:3′,4′-p][1]oxa[4,7,10,14]tetraazacycloheptadecine-7-carboxamide] | 504 nM | 361%
COc1cccc(CCNC(=O)[C@@H]2CC(=O)N(C)[C@@H](CC(C)C)C(=O)N3CCCC[C@@H]3C(=O)N[C@H](Cc3ccccc3)COc3nc4ccccn4c3C(=O)N2)c1 [Example 469, (7S,11S,22R,24aR)-22-benzyl-7-isobutyl-N-(3-methoxyphenethyl)-8-methyl-6,9,13,24-tetraoxo-1,3,4,6,7,8,9,10,11,12,13,21,22,23,24,24a-hexadecahydro-2H-pyrido[2,1-f]pyrido[2′,1′:2,3]imidazo[4,5-p][1]oxa[4,7,10,14]tetraazacycloheptadecine-11-carboxamide] | 381 nM | 110%
Cc1cc(CCNC(=O)[C@@H]2CC(=O)N(C)[C@@H](CC(C)C)C(=O)N3CCCC[C@@H]3C(=O)N[C@H](Cc3ccccc3)COc3nc4ccccn4c3C(=O)N2)on1 [Example 470, (7S,11S,22R,24aR)-22-benzyl-7-isobutyl-8-methyl-N-(2-(3-methylisoxazol-5-yl)ethyl)-6,9,13,24-tetraoxo-1,3,4,6,7,8,9,10,11,12,13,21,22,23,24,24a-hexadecahydro-2H-pyrido[2,1-f]pyrido[2′,1′:2,3]imidazo[4,5-p][1]oxa[4,7,10,14]tetraazacycloheptadecine-11-carboxamide] | 662 nM | 169%
